{"source": "patent US20090233957A1", "about": "“(-)-BELOXEPIN AND METHODS FOR ITS SYNTHESIS AND USE” (priority 2008, published 2009)", "key": {"[1]": {"molecular_target": "T1, cloned human 5HT2C receptor (Homo sapiens, UniProt P28335)", "T1 construct": "expressed in transfected cells; host or cells: CHO cells", "T1 sequence (P28335 33-458)": "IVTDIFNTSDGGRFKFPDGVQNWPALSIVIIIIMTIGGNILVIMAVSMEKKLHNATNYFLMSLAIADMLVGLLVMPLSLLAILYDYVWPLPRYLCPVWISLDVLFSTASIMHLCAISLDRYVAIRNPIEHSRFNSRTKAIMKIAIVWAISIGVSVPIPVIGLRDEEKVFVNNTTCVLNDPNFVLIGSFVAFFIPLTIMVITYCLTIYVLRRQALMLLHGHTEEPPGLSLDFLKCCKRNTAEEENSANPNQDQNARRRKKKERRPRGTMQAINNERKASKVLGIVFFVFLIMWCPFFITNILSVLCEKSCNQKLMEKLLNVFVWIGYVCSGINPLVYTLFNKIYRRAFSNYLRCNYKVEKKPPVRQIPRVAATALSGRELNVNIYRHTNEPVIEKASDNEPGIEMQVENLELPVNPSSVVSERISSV", "assay": "5HT2C receptor binding assay, [3H]mesulergine", "settings": "CHO membranes", "description": "For the 5HT2C receptor binding assay, [^3H]mesulergine (1.0 nM) was incubated for 60 min at 37° C. with membranes prepared from Chinese hamster ovary cells heterologously expressing the cloned human 5-HT2C receptor according to the method of Stam et al., 1994, Eur. J. Pharmacol. 269:339-348. Various concentrations of test compound were added and bound radioactivity was determined by scintillation counting. Non-specific binding was determined in the presence of 10 μM RS102221. The Ki value for the test compound was determined using standard methods."}, "L5 SNL rats": {"test_system": "L5 SNL rats", "assay": "L5 Single Nerve Ligation model of neuropathic pain, tactile allodynia (von Frey)", "format": "in vivo, rat", "description": "Protocol. The antiallodynic activity of (−)-beloxepin was tested in vivo using the L5—Single Nerve Ligation model of non-nociceptive neuropathic pain as described in LaBuda & Little, 2005, J. Neurosci. Methods 144:175-181. The test animals were placed in a Plexiglas chamber (10 cm×20 cm×25 cm) and habituated for 15 minutes. The chamber was positioned on top of a mesh screen so that von Frey monofilaments could be presented to the plantar surface of both hindpaws. Measurement of tactile sensitivity for each hind paw were obtained using the up/down method (Dixon, 1980, Annu. Rev. Pharmacol. Toxicol. 20:441-462) with seven Frey monofilaments (0.4, 1, 2, 4, 6, 8 and 15 grams). Each trial started with a von Frey force of 2 grams delivered to the right hind paw for approximately 1-2 seconds and then the left hind paw. If there was no withdrawal response, the next higher force was delivered. If there was a response, the next lower force was delivered. This procedure was performed until no response was made at the highest force (15 grams) or until four stimuli were administered following the initial response. The 50% paw withdrawal threshold for each paw was calculated using the following formula: [Xth]log=[vFr]log+ky, where [vFr] is the force of the last von Frey used, k=0.2249 which is the average interval (in log units) between the von Frey monofilaments, and y is a value that depends upon the pattern of withdrawal responses (Dixon, 1980, supra). […] Testing for tactile sensitivity was performed twice and the mean 50% withdrawal value assigned as the tactile sensitivity for the right and left paws for each animal.\nResults. The antiallodynic effects produced by (−)-beloxepin (30 mg/kg IP) and (+)-beloxepin (30 mg/kg IP) in L5 SNL rats 8 days post surgery are illustrated in FIG. 1. In this experiment, at 8 days post surgery, rats were treated with vehicle or beloxepin enantiomers (30 mg/kg IP) and tested for tactile allodynia at 30 min post treatment. […] No side effects were observed following treatment with either enantiomer.\nThe antiallodynic effects produced by (−)-beloxepin (30 mg/kg IP) in L5 SNL rats 14 days post surgery are illustrated in FIG. 2. In this experiment, at 14 days post surgery, rats were treated with vehicle or (−)-beloxepin and tested for tactile allodynia at 30, 60, 120 and 240 min post treatment. Vehicle treated rats were tested at 30 min post treatment.\nProtocol. A time course experiment was performed with (−)-beloxepin (60 mg/kg PO) in L5 SNL rats at 7 days post-surgery. Rats were tested at 30, 60, 120, and 240 minutes post-drug.\nProtocol. A time course experiment was also performed with (+)-beloxepin (60 mg/kg PO) in L5 SNL rats at 14 days post-surgery. Rats were tested at 30, 60, 120, and 240 minutes post-drug."}, "[2]": {"molecular_target": "T2, cloned human NE transporter (hNET) (Homo sapiens, UniProt P23975)", "T2 construct": "expressed in transfected cells; host or cells: CHO cells", "T2 sequence (P23975 whole entry)": "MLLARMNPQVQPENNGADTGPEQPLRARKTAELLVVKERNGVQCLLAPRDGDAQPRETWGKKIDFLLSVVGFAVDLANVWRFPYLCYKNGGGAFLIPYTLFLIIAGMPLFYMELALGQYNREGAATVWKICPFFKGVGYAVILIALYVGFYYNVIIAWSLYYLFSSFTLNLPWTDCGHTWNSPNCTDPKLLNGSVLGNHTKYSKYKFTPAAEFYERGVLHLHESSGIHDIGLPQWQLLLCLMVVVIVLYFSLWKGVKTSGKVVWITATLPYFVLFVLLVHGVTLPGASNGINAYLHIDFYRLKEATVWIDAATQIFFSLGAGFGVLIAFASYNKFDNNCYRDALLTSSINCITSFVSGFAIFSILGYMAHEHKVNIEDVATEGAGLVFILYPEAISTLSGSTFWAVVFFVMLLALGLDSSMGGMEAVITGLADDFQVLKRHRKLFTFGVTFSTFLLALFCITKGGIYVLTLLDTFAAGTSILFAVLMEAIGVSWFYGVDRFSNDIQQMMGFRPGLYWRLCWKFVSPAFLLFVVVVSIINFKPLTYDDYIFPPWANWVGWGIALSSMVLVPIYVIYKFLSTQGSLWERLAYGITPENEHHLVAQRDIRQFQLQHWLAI", "assay": "NE transporter binding assay, [3H]nisoxetine", "settings": "membranes of CHO cells expressing hNET; read-out: NET Ki", "description": "Protocols. For the NE transporter binding assay, [^3H]nisoxetine (1.0 nM) was incubated with various concentrations of test compounds for 2 hours at 4° C. with membranes prepared from Chinese hamster ovary cells (CHO) cells heterologously expressing the cloned human NE transporter (hNET). Bound radioactivity was determined by scintillation spectroscopy."}}}
{"smiles": "Cc1cccc2c1Oc1ccccc1C1(O)CCN(C)CC21", "note": "(single isomer, unassigned; (+)) [(+)-beloxepin]", "values": [{"measurement": "Ki", "setting": "[1]", "result": 0.084, "unit": "µM"}, {"measurement": "antiallodynic effect", "setting": "L5 SNL rats; 30 mg/kg IP, 8 days post surgery, 30 min post treatment", "result": "not statistically significant"}, {"measurement": "antiallodynic effect", "setting": "L5 SNL rats; 60 mg/kg PO, 14 days post-surgery, tested 30, 60, 120, 240 min", "result": "did not produce significant antiallodynic effects at any time point"}, {"measurement": "Ki", "setting": "[2]", "result": 2.92, "unit": "µM"}]}
